From publication PMC12650355 (2025) come the findings set out here.

Test [1] has as its system Apt2 (DNA, aptamer) ACTTCAGTGAGTTGTCCCACGGTCGGCGAGTCGGTGGTAG
The test is described as follows: SPR (Biacore T200), single concentration. To be noted: 100 mM Na+, 5 mM K+, 2 mM Mg2+, 1 mM Ca2+ (sample diluent Buf1), diluent Buf1 pH 7.4, SA-coated CM5 chip.

The test system is the same in test [2]. The test is described as follows: SPR (Biacore T200), steady-state fit. To be noted: 100 mM Na+, 5 mM K+, 2 mM Mg2+, 1 mM Ca2+ (sample diluent Buf1); running buffer PBS; diluent Buf1, 20 mM Tris-HCl pH 7.4; SA-coated CM5 chip.
[3] abbreviates: 6.4 μM tested, running buffer PBS not restated.

Each structure is given as a SMILES string.

As for `CO/N=C(\C(=O)N[C@@H]1C(=O)N2C(C(=O)O)=C(COC(N)=O)CS[C@H]12)c1ccco1`, in test [1] (6.4 μM tested (printed CN, CXM)), the binding entry is “no”. For `CS(=O)(=O)c1ccc([C@@H](O)[C@@H](CO)NC(=O)C(Cl)Cl)cc1`, the binding result in test [1] (setting [3]) is “no”. `O=C(N[C@H](CO)[C@H](O)c1ccc([N+](=O)[O-])cc1)C(Cl)Cl`: the KD in test [2] came to 141 nM. With `CS(=O)(=O)c1ccc([C@@H](O)[C@@H](CF)NC(=O)C(Cl)Cl)cc1`, the binding result in test [1] (setting [3]) is “no”.
